Results reported in paper PMC8448343, “Characterisation of novel functionality within the Blastocystis tryptophanase gene” (PLoS Neglected Tropical Diseases, 2021).

Target: T1, BhTnaA (Blastocystis ST7-B tryptophanase) (Blastocystis hominis, UniProt D8M5A5)
T1 construct: gene GSBLH_T00003147001; pGEX-6P-1, N-terminal GST tag cut with PreScission protease; E. coli BL21
T1 sequence (D8M5A5 1-544): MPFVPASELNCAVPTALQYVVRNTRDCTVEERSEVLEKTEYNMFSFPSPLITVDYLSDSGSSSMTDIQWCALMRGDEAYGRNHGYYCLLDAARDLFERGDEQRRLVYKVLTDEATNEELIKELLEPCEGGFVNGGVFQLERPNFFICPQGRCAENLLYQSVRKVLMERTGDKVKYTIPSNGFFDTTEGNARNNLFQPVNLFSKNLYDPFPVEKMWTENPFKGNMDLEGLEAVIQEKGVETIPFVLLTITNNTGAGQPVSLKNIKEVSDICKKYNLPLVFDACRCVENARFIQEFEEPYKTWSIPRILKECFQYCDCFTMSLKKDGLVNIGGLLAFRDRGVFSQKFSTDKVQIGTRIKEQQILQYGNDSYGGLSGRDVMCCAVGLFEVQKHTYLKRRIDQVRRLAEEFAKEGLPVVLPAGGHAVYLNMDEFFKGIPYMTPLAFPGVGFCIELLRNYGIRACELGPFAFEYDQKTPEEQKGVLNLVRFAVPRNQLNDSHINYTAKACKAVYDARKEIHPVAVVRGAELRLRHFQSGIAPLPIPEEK
Test: indole formation, Ehrlich's reagent, […] nm, Hanes-Woolf plot
Type: biochemical
Conditions: forward reaction (tryptophan to indole); PLP 0.165 mM; pH 7.5; 37 °C; toluene-layered; exact value only in Fig 4D

N[C@@H](Cc1c[nH]c2ccccc12)C(=O)O [L-tryptophan]
Km: > 3 mM
